Results as given in US9126980B2, “Compounds for inhibiting the interaction of BCL2 with binding partners” (Novartis AG, priority 2011, dated 2015).
Like-named read-outs stand apart in the source and are kept apart here.

Key:
[1] = molecular target: BCL-2 binding to biotinylated BAK peptide (Homo sapiens (Human), UniProt P10415); assay: SPR (Biacore) solution inhibition assay, BCL-2 binding to BAK peptide surface; details: read-out: BCL2_SPR IC50 BAK
Text: (§1) The present method includes utility of a Surface plasmon resonance (SPR)-based biosensor (Biacore™′ GE Healthcare, Uppsala, Sweden) to characterize BCL-2 inhibitors.
(§2) Biacore™ utilizes the phenomenon of surface plasmon resonance (SPR) to detect and measure binding interactions. In a typical Biacore experiment, one of the interacting molecules (ligand) is immobilized on a flexible dextran matrix while the interacting partner (analyte) is allowed to flow across that surface. A binding interaction results in an increase in mass on the sensor surface and a corresponding direct change in the refractive index of the medium in the vicinity of the sensor surface. Changes in refractive index or signal are recorded in resonance units (R.U.) Signal changes due to association and dissociation of complexes are monitored in a non-invasive manner, continuously and in real-time, the results of which are reported in the form of a sensorgram.
(§3) The SPR assay is configured to examine solution inhibition of BCL-2 binding to peptide derivatized sensor surfaces to generate IC50 values as a measure of inhibitor potency.
(§4) Solution Inhibition Assay Format:
(§5) Biacore™ A100 (GE Healthcare, Uppsala, Sweden) was used to conduct all experiments reported herein. Sensor surface preparation and all interaction analyses experiments were performed at 25° C. Reagents were purchased from GE Healthcare. Running buffer containing 10 mM Hepes, pH7.4, 150 mM sodium chloride, 1.25 mM Dithiothreitol, 3% Dimethyl sulfoxide and 0.05% polysorbate 20 were utilized throughout all analyses.
(§6) Biotinylated BAK, BAD and NOXA peptides were diluted to 10 nM in running buffer and captured onto a sensor surface pre-derivatized with streptavidin (sensor chip SA) to peptide surface densities in the range 50-100 R.U. Peptide captured surfaces were blocked with 500 μM PEO2-Biotin.
(§7) Interaction analyses were performed by first equilibrating each sample within a 6 point three fold compound dilution series in the range […] with 56 nM BCL-2 for one hour during instrument start-up procedures. Protein compound mixtures were then injected over each peptide surface in parallel for 60 seconds at a flow-rate of 30 μL/min. 56 nM BCL-2 control samples were also prepared and run at regular intervals during the assay. Surface regeneration was performed at the end of each analysis cycle by two 30 second injections of 10 mM Glycine, pH 2.5, 1M Sodium Chloride, 0.05% polysorbate 20. Samples and control compound samples were run in duplicate and controls are also run at regular intervals during the assay to monitor surface and assay performance.
(§8) Data analyses are carried out using Biacore™ A100 evaluation software v1.1 to validate assay quality. Binding level report points were used relative to BCL-2 control samples to calculate % inhibition values for each compound protein mixture. […] The range of data shown in table 1 represents the high and low IC50 values obtained from multiple experiments.

[2] = molecular target: BCL-2 binding to biotinylated BAD peptide (Homo sapiens (Human), UniProt P10415); assay: SPR (Biacore) solution inhibition assay, BCL-2 binding to BAD peptide surface; details: read-out: BCL2_SPR IC50 BAD
Text: as §1, §2, §3, §4, §5, §6, §7, §8

[3] = high and low IC50 values from multiple experiments, 56 nM BCL-2, BAD peptide sensor surface, 25° C.
[4] = high and low IC50 values from multiple experiments, 56 nM BCL-2, BAK peptide sensor surface, 25° C.

BCL-2 binding to biotinylated BAD peptide, sequence (P10415 whole entry): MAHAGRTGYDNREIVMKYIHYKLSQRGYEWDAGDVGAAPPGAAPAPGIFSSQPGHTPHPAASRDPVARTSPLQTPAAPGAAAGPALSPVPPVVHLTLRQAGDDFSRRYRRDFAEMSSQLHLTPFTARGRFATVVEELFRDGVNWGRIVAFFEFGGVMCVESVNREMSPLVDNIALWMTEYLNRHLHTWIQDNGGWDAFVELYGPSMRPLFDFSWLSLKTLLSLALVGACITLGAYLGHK
BCL-2 binding to biotinylated BAK peptide, sequence (P10415 whole entry): as above

Row | SMILES | IC50 [1] | IC50 [2] | IC50 [2, 3] | IC50 [1, 4]
1 | CCCCN(CCCC)C(=O)c1cc(C)n(-c2ccc(NS(=O)(=O)c3ccccc3)cc2C(=O)N2Cc3ccccc3C[C@H]2CO)n1 (stereo in doubt) [Example 1, N,N-dibutyl-1-(2-(3-(hydroxymethyl)-1,2,3,4-tetrahydroisoquinoline-2-carbonyl)-4-(phenylsulfonamido)phenyl)-5-methyl-1H-pyrazole-3-carboxamide] | 474 to 564 nM | 629 to 756 nM | – | –
2 | CCCCN(CCCC)C(=O)c1cc(C)n(-c2ccc(NS(C)(=O)=O)cc2C(=O)N2Cc3ccccc3C[C@H]2CO)n1 [Example 2] | 260 to 330 nM | 367 to 387 nM | – | –
3 | CCCCN(CCCC)C(=O)c1cc(C)n(-c2ccc(NS(=O)(=O)C(C)C)cc2C(=O)N2Cc3ccccc3C[C@H]2CO)n1 [Example 3] | 87.8 to 93 nM | 126 to 127 nM | – | –
4 | CCCCN(CCCC)C(=O)c1cc(C)n(-c2ccc(NS(=O)(=O)c3ccc(-c4ccc(Cl)cc4)cc3)cc2C(=O)N2Cc3ccccc3C[C@H]2CO)n1 [Example 9] | – | – | > 16000 nM | –

Continued, values first:

Row | IC50 [1] | IC50 [2] | IC50 [2, 3] | IC50 [1, 4] | SMILES
5 | – | – | > 16000 nM | 3020 to 3680 nM | CCCCN(CCCC)C(=O)c1cc(C)n(-c2ccc(NS(=O)(=O)c3ccc(Oc4ccccc4C)cc3)cc2C(=O)N2Cc3ccccc3C[C@H]2CO)n1 [Example 10]
6 | – | – | – | 435 to 683 nM | CCCCN(CCCC)C(=O)c1cc(C)n(-c2ccc(NS(=O)(=O)c3ccccc3Cl)cc2C(=O)N2Cc3ccccc3C[C@H]2CO)n1 [Example 14]
7 | – | – | – | 828 to 871 nM | CCCCN(CCCC)C(=O)c1cc(C)n(-c2ccc(NS(=O)(=O)c3cc(Cl)ccc3F)cc2C(=O)N2Cc3ccccc3C[C@H]2CO)n1 [Example 17]
8 | – | – | 418 to 436 nM | 252 to 257 nM | CCCCN(CCCC)C(=O)c1cc(C)n(-c2ccc(NS(=O)(=O)c3ccc(NC(C)=O)c(Cl)c3)cc2C(=O)N2Cc3ccccc3C[C@H]2CO)n1 [Example 25]
9 | – | – | – | 2280 to 2510 nM | CCCCN(CCCC)C(=O)c1cc(C)n(-c2ccc(NS(=O)(=O)c3ccc(CNC(=O)c4ccc(Cl)cc4)s3)cc2C(=O)N2Cc3ccccc3C[C@H]2CO)n1 [Example 30]
